15 compounds from patent US20130296425A1, “PROPHYLACTIC OR THERAPEUTIC AGENT FOR A PERIPHERAL NERVE DISORDER INDUCED BY ANTI-CANCER AGENTS” (NAGOYA INDUSTRIAL SCIENCE RESEARCH INSTITUTE, priority 2011, published 2013) can be followed below.

One experiment has as its system paclitaxel-induced peripheral nerve disorder rats. As to the kind of experiment: Repeated intraperitoneal administration, hyperalgesia by paclitaxel (von Frey test). It counts as in vivo, rat. Particulars: prophylactic i.p. 0.50 mg/kg/day, paclitaxel; male SD rats. How it is done:
With regard to male SD rats of six weeks age used as the experimental animals, their 50% reaction threshold values to the mechanical stimulus (the measuring method will be mentioned later) and body weights were measured and then the following seven groups each comprising eight rats was organized. • Normal control group • Onset control group • Prophylactic administration group with 0.25 mg/kg/day of a test drug • Prophylactic administration group with 0.50 mg/kg/day of a test drug • Therapeutic administration group with 0.25 mg/kg/day of a test drug • Therapeutic administration group with 0.50 mg/kg/day of a test drug • Therapeutic administration group with 30 mg/kg/day of gabapentin (positive control)
Taxol (registered trademark) injection 30 mg (manufactured by Bristol-Myers Squibb) containing 6 mg/mL of paclitaxel was used. To the rats of each of the above groups except the normal control group was intraperitoneally administered paclitaxel diluted to 2 mg/mL with saline in a dose of 2 mg/kg four times every other day whereupon the paclitaxel-induced peripheral nerve disorder rats were prepared. To the normal control group, an equivalent mixture of ethanol and Cremophor EL (registered trademark; manufactured by Sigma; a solvent for Taxisol (registered trademark) injection) diluted with saline to an extent of 3-fold was administered similarly.
To prophylactic administration groups of a test drug, the compound 4 in a dose of 0.25 mg/kg/day or 0.50 mg/kg/day was repeatedly administered intraperitoneally since immediately after initiation of administration of paclitaxel until 13 days thereafter. Meanwhile, to therapeutic administration groups of a test drug and to a therapeutic administration group of gabapentin, the compound 4 in a dose of 0.25 mg/kg/day or 0.50 mg/kg/day or gabapentin in a dose of 30 mg/kg/day, respectively was repeatedly administered intraperitoneally during the period of from 14 days to 42 days after initiation of the administration of paclitaxel.
The seven groups of rats of the above (1) were placed in a transparent acrylic cage with a wire-meshed floor and habituated for about three minutes and the 50% reaction threshold values to the mechanical stimulus of right hind limb were measured after 3, 7, 14, 21, 28, 35 and 42 days from initiation of the administration of paclitaxel. Incidentally, during the period of administration of a test drug, its values were measured after 24 hours from the last administration of a test drug.
The measurement was conducted using von Frey filaments (manufactured by North Coast Medical Inc.) in accordance with the methods of Chaplan, et al. (Journal of Neuroscience Methods, vol. 53, no. 1, pages 55 to 63, 1994) and Dixon, et al. (Annual Review of Pharmacology and Toxicology, vol. 20, pages 441 to 462, 1980). […] The case where the rat escaped at the instance of removing the filament was also called positive. When the positive reaction was noted, stimulus was conducted similarly using a filament of one rank weaker while, when no reaction was noted, stimulus was conducted similarly using a filament of one rank stronger and the point when the reaction changed from negative to positive or from positive to negative was called the first two reactions. […] A 50% reaction threshold value to the mechanical stimulus was measured using the reaction to the six stimuli in total and then (mean value) ± (standard error) for each group was calculated. […]
For `CCCCCCC/C=C/C(=O)O` [trans-2-decenoic acid, reference compound], the “50% reaction threshold values to the mechanical stimulus vs onset control group” value is “no difference from the onset control group”.

The next experiment shares this test system. Briefly: Single intraperitoneal administration, hyperalgesia induced by paclitaxel (von Frey test). In kind it is in vivo. The settings on record: Rattus norvegicus, ip, single i.p. dose 0.3 mg/kg, higher of the values after 1 hour and 5 hours, read-out: Recovery rate of 50% reaction threshold value (%). On the procedure: Male SD rats in six weeks age (one group comprised six rats) were used as experimental animals and the paclitaxel-induced peripheral nerve disorder rats were prepared in the same manner as in the above 1.[1](2). The test drug was administered intraperitoneally in a single dose so as to make it 0.3 mg/kg in any of the cases during the period of 18 to 25 days or 20 to 27 days after initiation of administration of paclitaxel.
A von Frey test was conducted in the same manner as in the above 1.[1](4) using the rats mentioned in the above (1) and each 50% reaction threshold value was measured. With regard to the higher 50% reaction threshold value between the 50% reaction threshold values after 1 hour and 5 hours from administration of a test drug, a recovery rate (%) of the 50% reaction threshold value was calculated.
Recovery rate (%) of 50% reaction threshold value={[(50% reaction threshold value after 1 hour or 5 hours from administration of test drug)−(50% reaction threshold value before administration of test drug)]÷[(Normal threshold value)−(50% reaction threshold value before administration of test drug)]}×100
Regarding `CCCCCCCCCC(=O)OCC` [Compound 2, Decanoic acid ethyl ester], the inhibition in vivo at 0.3 mg/kg is 22.9%. Turning to `CCCCCCC/C=C/C(=O)OC(C)(C)C` [Compound 10, Trans-2-decenoic acid tert-butyl ester], the inhibition in vivo at 0.3 mg/kg was determined as 50%.

For `CCCCCCC/C=C/C(=O)OCCC` [Compound 5, Trans-2-decenoic acid propyl ester], the inhibition in vivo at 0.3 mg/kg worked out at 71.2%. Turning to `CCCCCCC/C=C/C(=O)OCCCC` [Compound 7, Trans-2-decenoic acid butyl ester], the inhibition in vivo at 0.3 mg/kg was 22.7%. On the same count and under the same terms, as for `C=CCCCCCCCCOC(=O)/C=C/CCCCCCC` [Compound 17, Trans-2-decenoic acid trans-9-decenyl ester], the figure is 54%; as for `CCCCCCC/C=C/COC(=O)/C=C/CCCCCCC` [Compound 16, Trans-2-decenoic acid trans-2-decenyl ester], 94.4%; as for `CCCCCCC/C=C/C(=O)OC(C)C` [Compound 6, Trans-2-decenoic acid isopropyl ester], 10.2%. As for `CCCCCCC/C=C/C(=O)OCCCCCCC` [Compound 12, Trans-2-decenoic acid heptyl ester], the inhibition in vivo at 0.3 mg/kg is 21.3%. For `C=CCCCCCCCC(=O)OCC` [Compound 22, Trans-9-decenoic acid ethyl ester], the inhibition in vivo at 0.3 mg/kg is 67.9%. As for `CCCCCC/C=C/CC(=O)OCC` [Compound 20, Trans-3-decenoic acid ethyl ester], the inhibition in vivo at 0.3 mg/kg amounted to 14.7%. The same measure, in the same setting: the value for `CCCCCCC/C=C/C(=O)OCCCCCC` [Compound 11, Trans-2-decenoic acid hexyl ester] was 60.8%; that for `CCCCCCC/C=C/C(=O)OC1CCCCC1` [Compound 18, Trans-2-decenoic acid cyclohexyl ester] was 15.8%. Still for that read-out and setting: the value for `CCCCCCC/C=C/C(=O)OC` [Compound 3, Trans-2-decenoic acid methyl ester] was 63.2%; that for `CCCCCCC/C=C/C(=O)OCCCCCCCCCC` [Compound 14, Trans-2-decenoic acid decyl ester] was 32.2%.
